Experimental data from ChEMBL document CHEMBL1201862, “PubChem BioAssay data set” (2004).
Activity calls are given as the source filed them.

Experiments:
ORF 73 = target: T1, ORF 73 (Human herpesvirus 8, UniProt O40947); assay: KSHV LANA DNA-binding disruption – biochemical, fluorescence polarization, cherry-picked samples, dose response (AID 504725); set-up: species or system Human gammaherpesvirus 8;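 note: fluorescence polarization of a labeled DNA duplex reporting LANA DNA binding; potency is for inhibitors that block LANA binding to the DNA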
T1 sequence (O40947 whole entry): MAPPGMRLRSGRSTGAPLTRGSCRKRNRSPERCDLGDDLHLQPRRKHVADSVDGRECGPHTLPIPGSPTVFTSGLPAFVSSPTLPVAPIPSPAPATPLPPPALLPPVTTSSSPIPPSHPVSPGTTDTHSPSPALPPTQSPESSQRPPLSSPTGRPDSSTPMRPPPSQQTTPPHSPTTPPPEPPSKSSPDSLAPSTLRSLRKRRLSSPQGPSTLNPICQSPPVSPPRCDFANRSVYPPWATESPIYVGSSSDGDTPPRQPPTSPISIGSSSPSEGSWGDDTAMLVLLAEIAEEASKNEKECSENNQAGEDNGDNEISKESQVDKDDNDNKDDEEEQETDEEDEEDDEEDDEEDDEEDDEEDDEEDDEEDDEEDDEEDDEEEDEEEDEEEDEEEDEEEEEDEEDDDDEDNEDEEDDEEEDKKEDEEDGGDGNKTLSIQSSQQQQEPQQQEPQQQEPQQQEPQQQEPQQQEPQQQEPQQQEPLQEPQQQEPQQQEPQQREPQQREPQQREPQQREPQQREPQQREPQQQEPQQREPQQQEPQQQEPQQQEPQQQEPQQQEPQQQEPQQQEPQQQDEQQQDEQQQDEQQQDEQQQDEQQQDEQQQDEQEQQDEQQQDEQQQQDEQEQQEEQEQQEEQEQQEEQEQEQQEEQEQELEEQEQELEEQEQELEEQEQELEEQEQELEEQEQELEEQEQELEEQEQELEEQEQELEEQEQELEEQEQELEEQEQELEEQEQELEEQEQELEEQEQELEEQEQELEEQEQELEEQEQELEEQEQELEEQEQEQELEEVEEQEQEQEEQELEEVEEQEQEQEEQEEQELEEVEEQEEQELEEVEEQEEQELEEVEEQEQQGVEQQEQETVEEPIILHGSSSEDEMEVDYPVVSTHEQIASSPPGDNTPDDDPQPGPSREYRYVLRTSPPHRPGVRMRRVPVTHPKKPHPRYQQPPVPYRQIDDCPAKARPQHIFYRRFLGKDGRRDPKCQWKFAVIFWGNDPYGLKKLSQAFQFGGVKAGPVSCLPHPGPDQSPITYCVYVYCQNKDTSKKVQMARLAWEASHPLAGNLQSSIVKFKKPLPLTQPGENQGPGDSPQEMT

[1] = target: Protein kinase C theta type (Homo sapiens, UniProt Q04759); assay: Navigating the Kinome. Panel member name: PRKCQ; type: functional
Chain of Protein kinase C theta type (Q04759 whole entry): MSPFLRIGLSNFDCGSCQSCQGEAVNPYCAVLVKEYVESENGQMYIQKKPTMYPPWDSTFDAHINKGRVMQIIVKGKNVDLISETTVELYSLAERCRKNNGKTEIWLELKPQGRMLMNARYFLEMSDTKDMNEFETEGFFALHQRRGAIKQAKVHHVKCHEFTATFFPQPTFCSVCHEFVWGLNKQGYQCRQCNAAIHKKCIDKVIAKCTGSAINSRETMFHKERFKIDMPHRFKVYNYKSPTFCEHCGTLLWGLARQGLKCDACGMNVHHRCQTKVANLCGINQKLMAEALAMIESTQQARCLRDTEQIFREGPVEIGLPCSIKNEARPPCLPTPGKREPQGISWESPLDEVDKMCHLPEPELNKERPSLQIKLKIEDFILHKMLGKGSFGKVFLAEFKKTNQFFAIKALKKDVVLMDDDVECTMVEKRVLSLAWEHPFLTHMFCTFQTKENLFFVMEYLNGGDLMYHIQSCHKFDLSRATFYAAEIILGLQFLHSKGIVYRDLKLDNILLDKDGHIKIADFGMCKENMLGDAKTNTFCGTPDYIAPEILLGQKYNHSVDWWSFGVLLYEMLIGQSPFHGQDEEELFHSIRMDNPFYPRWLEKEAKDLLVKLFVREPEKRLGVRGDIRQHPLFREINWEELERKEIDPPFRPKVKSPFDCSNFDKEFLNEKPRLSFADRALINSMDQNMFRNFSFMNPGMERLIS

[2] = target: Tyrosine-protein kinase JAK2 (Homo sapiens, UniProt O60674); type: functional;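 note: JAK2 tested as one member of a kinase panel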
Chain of Tyrosine-protein kinase JAK2 (O60674 whole entry): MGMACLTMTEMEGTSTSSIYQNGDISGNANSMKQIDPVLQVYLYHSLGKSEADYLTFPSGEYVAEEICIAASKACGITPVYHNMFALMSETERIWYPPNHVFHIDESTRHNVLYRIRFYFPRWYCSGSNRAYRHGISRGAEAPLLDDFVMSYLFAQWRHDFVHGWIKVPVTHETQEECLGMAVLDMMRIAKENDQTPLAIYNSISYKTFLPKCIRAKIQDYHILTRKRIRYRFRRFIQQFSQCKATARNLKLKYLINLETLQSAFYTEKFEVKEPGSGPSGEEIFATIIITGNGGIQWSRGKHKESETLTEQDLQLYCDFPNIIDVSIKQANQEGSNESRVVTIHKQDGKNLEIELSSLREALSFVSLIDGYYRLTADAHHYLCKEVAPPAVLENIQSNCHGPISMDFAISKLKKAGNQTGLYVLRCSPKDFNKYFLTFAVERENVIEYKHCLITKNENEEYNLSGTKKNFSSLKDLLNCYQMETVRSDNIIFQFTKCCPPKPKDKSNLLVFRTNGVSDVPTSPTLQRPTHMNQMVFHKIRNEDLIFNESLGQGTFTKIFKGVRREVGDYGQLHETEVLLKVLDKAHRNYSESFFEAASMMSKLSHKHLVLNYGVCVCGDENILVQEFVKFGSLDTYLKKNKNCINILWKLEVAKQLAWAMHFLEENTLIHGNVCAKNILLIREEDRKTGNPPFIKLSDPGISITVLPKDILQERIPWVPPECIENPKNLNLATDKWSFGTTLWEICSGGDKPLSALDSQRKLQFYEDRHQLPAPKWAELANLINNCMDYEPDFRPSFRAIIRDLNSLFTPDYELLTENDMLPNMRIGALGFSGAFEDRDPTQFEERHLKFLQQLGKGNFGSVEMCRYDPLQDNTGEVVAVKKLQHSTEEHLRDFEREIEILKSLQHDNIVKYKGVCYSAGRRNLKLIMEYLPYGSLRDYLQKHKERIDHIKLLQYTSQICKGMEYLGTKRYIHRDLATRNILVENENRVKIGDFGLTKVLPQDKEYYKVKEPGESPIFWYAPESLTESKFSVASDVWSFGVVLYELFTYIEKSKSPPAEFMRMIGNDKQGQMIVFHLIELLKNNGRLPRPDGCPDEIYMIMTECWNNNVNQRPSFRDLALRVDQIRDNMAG

[3] = target: Serine/threonine-protein kinase TBK1 (Homo sapiens, UniProt Q9UHD2); assay: Navigating the Kinome. Panel member name: TBK1; type: functional
[4] = target: 5'-AMP-activated protein kinase catalytic subunit alpha-1 (Homo sapiens, UniProt Q13131); type: functional
[5] = target: ALK tyrosine kinase receptor (Homo sapiens, UniProt Q9UM73); type: functional;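 note: ALK tested as one member of a kinase panel screen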
[6] = target: Death-associated protein kinase 3 (Homo sapiens, UniProt O43293); type: functional;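 note: measured as one member of a kinome-wide profiling panel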
Chain of Death-associated protein kinase 3 (O43293 whole entry): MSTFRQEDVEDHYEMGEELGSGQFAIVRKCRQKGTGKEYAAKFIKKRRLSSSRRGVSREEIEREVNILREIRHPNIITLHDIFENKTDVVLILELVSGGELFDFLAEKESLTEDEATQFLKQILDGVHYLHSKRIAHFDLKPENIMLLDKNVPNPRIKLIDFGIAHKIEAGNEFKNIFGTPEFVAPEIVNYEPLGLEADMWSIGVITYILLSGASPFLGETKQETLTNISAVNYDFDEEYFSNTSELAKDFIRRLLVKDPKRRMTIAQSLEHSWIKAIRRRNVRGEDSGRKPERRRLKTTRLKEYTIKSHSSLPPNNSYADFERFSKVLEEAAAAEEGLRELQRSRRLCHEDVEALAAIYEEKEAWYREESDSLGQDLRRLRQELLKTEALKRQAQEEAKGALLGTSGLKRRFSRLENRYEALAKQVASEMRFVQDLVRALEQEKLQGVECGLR

[7] = target: Mitogen-activated protein kinase 8 (Homo sapiens, UniProt P45983); type: functional;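 note: value comes from one member of a kinome-wide kinase profiling panel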
Chain of Mitogen-activated protein kinase 8 (P45983 whole entry): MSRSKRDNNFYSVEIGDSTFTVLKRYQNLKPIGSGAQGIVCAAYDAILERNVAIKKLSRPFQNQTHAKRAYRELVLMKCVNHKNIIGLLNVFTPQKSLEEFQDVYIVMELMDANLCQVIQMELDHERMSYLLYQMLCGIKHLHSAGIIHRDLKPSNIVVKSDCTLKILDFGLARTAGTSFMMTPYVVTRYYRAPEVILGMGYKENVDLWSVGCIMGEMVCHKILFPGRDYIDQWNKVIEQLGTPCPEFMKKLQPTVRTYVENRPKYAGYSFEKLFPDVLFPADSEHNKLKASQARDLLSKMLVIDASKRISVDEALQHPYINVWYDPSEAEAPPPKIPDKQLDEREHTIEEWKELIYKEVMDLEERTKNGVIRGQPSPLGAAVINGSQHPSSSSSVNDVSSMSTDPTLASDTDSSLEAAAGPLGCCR

Aurora kinase A = target: T2, Aurora kinase A (Homo sapiens, UniProt O14965); type: functional;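 note: value from the Navigating the Kinome kinase panel profiling, panel entry STK6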
T2 sequence (O14965 whole entry): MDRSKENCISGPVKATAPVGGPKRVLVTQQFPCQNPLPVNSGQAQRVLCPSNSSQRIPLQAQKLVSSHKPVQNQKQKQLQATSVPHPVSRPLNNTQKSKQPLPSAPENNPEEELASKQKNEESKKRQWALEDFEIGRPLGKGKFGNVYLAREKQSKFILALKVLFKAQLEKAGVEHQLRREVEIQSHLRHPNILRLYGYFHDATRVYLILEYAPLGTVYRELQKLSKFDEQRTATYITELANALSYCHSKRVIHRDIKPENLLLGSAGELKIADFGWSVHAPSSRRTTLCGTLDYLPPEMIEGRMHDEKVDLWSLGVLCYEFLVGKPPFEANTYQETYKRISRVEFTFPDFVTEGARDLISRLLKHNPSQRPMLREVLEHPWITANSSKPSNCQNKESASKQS

[8] = target: Casein kinase I isoform alpha (Homo sapiens, UniProt P48729); type: functional
Chain of Casein kinase I isoform alpha (P48729 whole entry, canonical isoform): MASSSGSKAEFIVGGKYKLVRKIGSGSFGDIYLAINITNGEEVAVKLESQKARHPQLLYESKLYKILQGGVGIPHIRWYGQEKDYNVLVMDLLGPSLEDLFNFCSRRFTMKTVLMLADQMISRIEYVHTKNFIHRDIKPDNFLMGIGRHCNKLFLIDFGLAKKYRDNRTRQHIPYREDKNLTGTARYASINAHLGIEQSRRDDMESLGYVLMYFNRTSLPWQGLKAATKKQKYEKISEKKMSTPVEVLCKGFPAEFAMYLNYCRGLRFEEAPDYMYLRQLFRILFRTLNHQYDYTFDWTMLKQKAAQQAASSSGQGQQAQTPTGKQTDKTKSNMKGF

[9] = target: Tyrosine-protein kinase JAK3 (Homo sapiens, UniProt P52333); type: functional
[10] = target: Mitogen-activated protein kinase 9 (Homo sapiens, UniProt P45984); type: functional;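 note: value from a kinome panel profiling assay, MAPK9 panel entry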
Chain of Mitogen-activated protein kinase 9 (P45984 whole entry): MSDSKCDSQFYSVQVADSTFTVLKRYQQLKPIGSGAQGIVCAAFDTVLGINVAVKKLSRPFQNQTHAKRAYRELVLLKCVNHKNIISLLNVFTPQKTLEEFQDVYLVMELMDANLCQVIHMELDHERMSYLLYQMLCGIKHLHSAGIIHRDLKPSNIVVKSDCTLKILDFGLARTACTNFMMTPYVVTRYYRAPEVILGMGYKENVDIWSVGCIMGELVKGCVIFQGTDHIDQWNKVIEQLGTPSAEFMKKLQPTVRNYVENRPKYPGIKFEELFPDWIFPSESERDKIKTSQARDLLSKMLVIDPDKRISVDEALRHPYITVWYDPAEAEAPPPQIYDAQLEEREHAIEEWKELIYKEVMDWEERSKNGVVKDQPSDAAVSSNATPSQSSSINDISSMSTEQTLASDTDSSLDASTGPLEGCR

[11] = target: Mitogen-activated protein kinase kinase kinase kinase 2 (Homo sapiens, UniProt Q12851); type: functional;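 note: measured as one member of a kinome-wide kinase panel, with MAP4K2 as the panel entry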
Activated CDC42 kinase 1 = Activated CDC42 kinase 1 (Homo sapiens, UniProt Q07912); assay: Navigating the Kinome. Panel member name: ACK1; type: functional
[12] = target: Receptor-type tyrosine-protein kinase FLT3 (Homo sapiens, UniProt P36888); type: functional;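 note: FLT3 was tested as one member of a kinome-wide kinase panel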
[13] = target: Tyrosine-protein kinase ABL1 (Homo sapiens, UniProt P00519); type: functional
[14] = target: Vascular endothelial growth factor receptor 2 (Homo sapiens, UniProt P35968); type: functional
[15] = target: Dual specificity tyrosine-phosphorylation-regulated kinase 1B (Homo sapiens, UniProt Q9Y463); assay: Navigating the Kinome. Panel member name: DYRK1B; type: functional
[16] = target: Rho-associated protein kinase 1 (Homo sapiens, UniProt Q13464); type: functional;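 note: measured within a broad kinome-wide panel profiling many kinases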
[17] = target: Cyclin-dependent kinase 7 (Homo sapiens, UniProt P50613); type: functional;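 note: value comes from a kinome-wide kinase profiling panel in which CDK7 is one member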
Chain of Cyclin-dependent kinase 7 (P50613 whole entry): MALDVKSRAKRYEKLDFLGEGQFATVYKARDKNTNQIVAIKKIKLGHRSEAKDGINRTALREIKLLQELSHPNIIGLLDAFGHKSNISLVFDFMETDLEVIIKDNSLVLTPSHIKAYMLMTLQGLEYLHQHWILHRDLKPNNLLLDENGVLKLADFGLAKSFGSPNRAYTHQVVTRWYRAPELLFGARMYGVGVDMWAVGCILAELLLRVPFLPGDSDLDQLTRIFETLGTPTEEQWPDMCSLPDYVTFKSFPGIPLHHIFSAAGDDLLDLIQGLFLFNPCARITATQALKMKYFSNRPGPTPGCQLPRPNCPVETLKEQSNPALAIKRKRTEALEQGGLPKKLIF

[18] = target: BDNF/NT-3 growth factors receptor (Homo sapiens, UniProt Q16620); type: functional;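 note: NTRK2 measured as one member of a broad kinome-wide kinase profiling panel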
[19] = target: Macrophage colony-stimulating factor 1 receptor (Homo sapiens, UniProt P07333); type: functional;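 note: value comes from the Navigating the Kinome screening panel, CSF1R member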
Chain of Macrophage colony-stimulating factor 1 receptor (P07333 whole entry): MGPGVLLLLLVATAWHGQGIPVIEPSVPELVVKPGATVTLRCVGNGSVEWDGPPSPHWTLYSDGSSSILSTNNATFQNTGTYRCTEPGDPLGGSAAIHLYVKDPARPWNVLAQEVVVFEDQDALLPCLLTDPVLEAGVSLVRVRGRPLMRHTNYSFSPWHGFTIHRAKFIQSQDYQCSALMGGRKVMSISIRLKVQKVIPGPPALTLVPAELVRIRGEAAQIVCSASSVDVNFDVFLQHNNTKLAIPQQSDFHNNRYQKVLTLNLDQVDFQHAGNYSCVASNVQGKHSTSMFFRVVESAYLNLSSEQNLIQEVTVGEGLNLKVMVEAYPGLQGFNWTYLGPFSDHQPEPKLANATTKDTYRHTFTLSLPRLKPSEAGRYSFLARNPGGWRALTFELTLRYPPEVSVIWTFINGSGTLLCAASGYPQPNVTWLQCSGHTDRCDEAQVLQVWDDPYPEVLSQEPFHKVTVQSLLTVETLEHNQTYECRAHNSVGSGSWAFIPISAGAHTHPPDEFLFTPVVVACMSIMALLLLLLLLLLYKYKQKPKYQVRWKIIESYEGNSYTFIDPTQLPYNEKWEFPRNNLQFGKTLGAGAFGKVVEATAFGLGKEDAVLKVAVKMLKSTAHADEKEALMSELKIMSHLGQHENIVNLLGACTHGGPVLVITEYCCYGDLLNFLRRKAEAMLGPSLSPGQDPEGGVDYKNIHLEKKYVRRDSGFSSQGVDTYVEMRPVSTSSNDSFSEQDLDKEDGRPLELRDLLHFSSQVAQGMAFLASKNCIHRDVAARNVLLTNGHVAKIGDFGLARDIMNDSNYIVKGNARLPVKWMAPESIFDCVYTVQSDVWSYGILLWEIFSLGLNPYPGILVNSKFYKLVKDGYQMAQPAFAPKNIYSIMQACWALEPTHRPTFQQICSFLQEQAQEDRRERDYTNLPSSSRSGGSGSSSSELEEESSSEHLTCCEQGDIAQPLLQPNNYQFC

BJ = assay: BJ-TERT-LT-ST fibroblast viability loss – cell-based, RAS-independent, luminescence, dose response (AID 1935); type: functional; conditions: Homo sapiens;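 note: BJ fibroblasts immortalized with TERT plus LT and ST oncogenes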
[20] = bead-based luminescence quenchers, dual-tagged ARNT – biochemical, AlphaScreen, cherry-pick, artefact control for ARNT-TACC3 interaction inhibitor project, dose response (AID 651705); type: functional;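 note: AlphaScreen bead proximity signal that flags compounds interfering with the detection technology; potency reflects signal decrease which marks the compound as an assay artifact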
[21] = target: Protein-tyrosine kinase 2-beta (Homo sapiens, UniProt Q14289); type: functional
[22] = target: Serine/threonine-protein kinase MRCK alpha (Homo sapiens, UniProt Q5VT25); type: functional

Ki [1]	Ki [2]	Ki [5]	Ki [7]	Ki (Aurora kinase A)	Ki [8]	Ki [9]	Ki [10]	Ki [11]	Ki (Activated CDC42 kinase 1)	Ki [13]	Ki [14]	Ki [15]	Ki [16]	Ki [17]	Ki [18]	Ki [19]	Compound	Ki [6]	further results
> 100 µM (inactive)	79.4 µM (active)	25.1 µM (active)	7.94 µM (active)	> 63.1 µM (inactive)	6.31 µM (active)	–	31.6 µM (active)	50.1 µM (active)	–	100 µM (active)	25.1 µM (active)	20 µM (active)	39.8 µM (active)	63.1 µM (active)	–	79.4 µM (active)	COC(=O)c1c(N)nc2ccccn12	50.1 µM (active)	–
–	–	–	–	–	–	> 5.01 µM (inactive)	–	–	> 3.98 µM (inactive)	–	–	–	–	–	0.631 µM (active)	–	Cc1ccc(F)c(NC(=O)Nc2ccc(-c3cccc4[nH]nc(N)c34)cc2)c1 [LINIFANIB]	–	Ki [21]: > 1.58 µM (inactive); Ki [22]: > 10 µM (inactive)

Second part, the compound before the results:

Compound	Ki [1]	Ki [2]	Ki [5]	Ki [7]	Ki (Aurora kinase A)	Ki [8]	Ki [9]	Ki [10]	Ki [11]	Ki (Activated CDC42 kinase 1)	Ki [13]	Ki [14]	Ki [15]	Ki [16]	Ki [17]	Ki [18]	Ki [19]	Ki [6]	further results
COc1cccc2c1NC(C(=O)O)C1CC=CC21 (centres undefined)	–	–	–	–	–	–	–	–	–	–	–	–	–	–	–	–	–	–	AC50 (ORF 73): 35.8 µM (active)
COc1c(-c2nc3ccccc3[nH]2)c(O)cc2oc(C)cc(=O)c12	0.398 µM (active)	2 µM (active)	1.26 µM (active)	0.631 µM (active)	0.251 µM (active)	1.58 µM (active)	3.98 µM (active)	2.51 µM (active)	0.501 µM (active)	> 3.98 µM (inactive)	0.794 µM (active)	2.51 µM (active)	0.398 µM (active)	3.16 µM (active)	0.501 µM (active)	3.16 µM (active)	2 µM (active)	2.51 µM (active)	Ki [3]: 1.58 µM (active); Ki [4]: 0.794 µM (active); Ki [12]: 0.398 µM (active)
CCc1ccc(S(=O)(=O)/N=C2\C=C(Nc3ccc(O)cc3)C(=O)c3ccccc32)cc1	–	–	–	–	–	–	–	–	–	–	–	–	–	–	–	–	–	–	EC50 (BJ): 2.83 µM (active)
Cc1cc([N+](=O)[O-])cc(/C=N\NC(=O)C2COc3ccccc3O2)c1O (centres undefined)	–	–	–	–	–	–	–	–	–	–	–	–	–	–	–	–	–	–	AC50 [20]: 93.6 µM (active)
